In test [1] the target is T1, mouse STING ligand-binding domain (mSTING-LBD) (Mus musculus, UniProt Q3TBT3).
T1 sequence (Q3TBT3 146-370): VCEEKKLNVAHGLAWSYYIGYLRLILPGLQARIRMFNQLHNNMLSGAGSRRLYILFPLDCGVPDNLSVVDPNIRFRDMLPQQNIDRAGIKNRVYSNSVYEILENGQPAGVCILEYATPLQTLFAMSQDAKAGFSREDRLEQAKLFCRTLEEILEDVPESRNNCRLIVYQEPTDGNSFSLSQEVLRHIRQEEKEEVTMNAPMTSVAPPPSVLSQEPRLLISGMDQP
The test can be described thus: BLI.

Test [2] has as its target human STING ligand-binding domain (hSTING-LBD) (Homo sapiens, UniProt Q86WV6). The test can be described thus: BLI Kd.

Among the data in PMC12296492 (Cell Reports Methods, 2025) are Kd values, retold here.

human STING ligand-binding domain (hSTING-LBD), sequence (Q86WV6 155-343): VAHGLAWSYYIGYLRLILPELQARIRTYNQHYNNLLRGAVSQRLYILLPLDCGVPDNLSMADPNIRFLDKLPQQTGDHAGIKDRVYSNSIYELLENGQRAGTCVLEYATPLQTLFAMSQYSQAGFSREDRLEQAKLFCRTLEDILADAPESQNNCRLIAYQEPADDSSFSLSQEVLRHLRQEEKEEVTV

In the case of `C=CCc1ccc(O)c(-c2ccc(O)c(CC=C)c2)c1` [honokiol], the Kd is 17 ± 0.5 µM in test [1] and 12.9 ± 0.4 µM in test [2].
